Data as given in the supplement of paper PMC13380429.

Legend:
Settings in all cases: 72 h
Caco-2 [1] = assay: cell viability relative to DMSO; higher = less toxic
Calu-3 [2] = assay: as above
HepG2 [3] = assay: as above
U2OS [4] = assay: as above
Vero E6 [5] = assay: as above
Caco-2 [6] = assay: relative viability EC50 (midpoint between 100% and the lowest measured viability); higher = less toxic
Calu-3 [7] = assay: as above
HepG2 [8] = assay: as above
U2OS [9] = assay: as above
Vero E6 [10] = assay: as above
Caco-2 [11] = assay: drug sensitivity score (DSS) for viability; higher = more toxic; extreme values may be limits of the assay
Calu-3 [12] = assay: as above
HepG2 [13] = assay: as above
U2OS [14] = assay: as above
Vero E6 [15] = assay: as above

Compound | cell viability (Caco-2 [1]; 1 nM) | cell viability (Caco-2 [1]; 10 nM) | cell viability (Caco-2 [1]; 100 nM) | cell viability (Caco-2 [1]; 1000 nM) | cell viability (Caco-2 [1]; 10000 nM) | cell viability (Calu-3 [2]; 1 nM) | cell viability (Calu-3 [2]; 10 nM) | cell viability (Calu-3 [2]; 100 nM) | cell viability (Calu-3 [2]; 1000 nM) | cell viability (Calu-3 [2]; 10000 nM) | cell viability (HepG2 [3]; 1 nM) | cell viability (HepG2 [3]; 10 nM) | cell viability (HepG2 [3]; 100 nM) | cell viability (HepG2 [3]; 1000 nM) | cell viability (HepG2 [3]; 10000 nM) | cell viability (U2OS [4]; 1 nM) | cell viability (U2OS [4]; 10 nM) | cell viability (U2OS [4]; 100 nM) | cell viability (U2OS [4]; 1000 nM) | cell viability (U2OS [4]; 10000 nM) | cell viability (Vero E6 [5]; 1 nM) | cell viability (Vero E6 [5]; 10 nM) | cell viability (Vero E6 [5]; 100 nM) | cell viability (Vero E6 [5]; 1000 nM) | cell viability (Vero E6 [5]; 10000 nM) | relative viability EC50 (Caco-2 [6]) | relative viability EC50 (Calu-3 [7]) | relative viability EC50 (HepG2 [8]) | relative viability EC50 (U2OS [9]) | relative viability EC50 (Vero E6 [10]) | drug sensitivity score (Caco-2 [11]) | drug sensitivity score (Calu-3 [12]) | drug sensitivity score (HepG2 [13]) | drug sensitivity score (U2OS [14]) | drug sensitivity score (Vero E6 [15])
OB1OCc2cc(F)ccc21 [tavaborole] | 95.6% | 87.4% | 91.7% | 88.3% | 97.3% | 101% | 105% | 96.4% | 104% | 105% | 92.9% | 105% | 103% | 102% | 105% | 99.2% | 97.3% | 100% | 97.2% | 102% | 94.6% | 96% | 87.7% | 92% | 112% | > 10 µM | > 10 µM | > 10 µM | > 10 µM | > 10 µM | 0 | 0 | 0 | 0 | 0
Cc1[nH]c2ccccc2c1CCNCc1ccc(/C=C/C(=O)NO)cc1 [panobinostat] | 99.8% | 110% | 68.4% | 1% | 1.1% | 113% | 113% | 67.8% | 17.5% | 6% | 104% | 80.6% | 36.8% | -0.3% | -0.4% | 99.2% | 97% | 62.4% | 1.4% | 0.8% | 101% | 97.8% | 70.8% | -0.4% | -0.5% | 0.136 µM | 0.175 µM | 0.052 µM | 0.127 µM | 0.142 µM | 22.3 | 19.4 | 26.6 | 22.6 | 22.3
CCOC(=O)[C@H](CCc1ccccc1)N[C@@H](C)C(=O)N1Cc2cc(OC)c(OC)cc2C[C@H]1C(=O)O [moexipril] | 106% | 96% | 101% | 89.3% | 98.2% | 97% | 97% | 107% | 111% | 104% | 95.8% | 98.6% | 96% | 95.5% | 92.2% | 96% | 102% | 92.8% | 100% | 95.7% | 96.2% | 102% | 96.6% | 96.9% | 102% | > 10 µM | > 10 µM | > 10 µM | > 10 µM | > 10 µM | 0 | 0 | 0 | 0 | 0
COc1ccc(CCN2CCN(CCCc3ccccc3)CC2)cc1OC [cutamesine] | 97.9% | 95.6% | 96% | 92.9% | 98% | 95.9% | 110% | 102% | 119% | 96.8% | 91.5% | 97.2% | 88.9% | 98.4% | 85% | 106% | 100% | 104% | 93.5% | 96.8% | 102% | 92.5% | 102% | 96.2% | 95.6% | > 10 µM | > 10 µM | > 10 µM | > 10 µM | > 10 µM | 0 | 0 | 0 | 0 | 0
C#C[C@]1(O)CC[C@H]2[C@@H]3CCC4=CC(=O)CC[C@]4(C)[C@H]3CC[C@@]21C [ethisterone] | 89.4% | 103% | 89.4% | 91.1% | 97.5% | 95.7% | 95.9% | 103% | 103% | 102% | 109% | 102% | 97.9% | 95.1% | 97.6% | 97.3% | 103% | 94.6% | 96.4% | 102% | 106% | 102% | 105% | 101% | 95.6% | > 10 µM | > 10 µM | > 10 µM | > 10 µM | > 10 µM | 0 | 0 | 0 | 0 | 0
C[C@H]1CN(C[C@H](Cc2ccccc2)C(=O)NCC(=O)O)CC[C@@]1(C)c1cccc(O)c1 [alvimopan] | 102% | 91.8% | 93.6% | 107% | 106% | 107% | 91.9% | 104% | 111% | 104% | 96.8% | 103% | 110% | 99.3% | 104% | 100% | 97.3% | 101% | 104% | 102% | 90.4% | 96.2% | 94.8% | 95.8% | 104% | > 10 µM | > 10 µM | > 10 µM | > 10 µM | > 10 µM | 0 | 0 | 0 | 0 | 0
CC(=O)O[C@H]1C[C@@H]2CC[C@@H]3[C@H](CC[C@@]4(C)[C@H]3C[C@H](N3CC[N+](C)(C)CC3)[C@@H]4OC(C)=O)[C@@]2(C)C[C@@H]1N1CC[N+](C)(C)CC1 [pipecuronium] | 93.7% | 103% | 91.2% | 96.7% | 97% | 87.8% | 102% | 90.2% | 111% | 96.7% | 97.8% | 94.2% | 97.4% | 96.8% | 92.3% | 101% | 104% | 97.7% | 105% | 96.9% | 100% | 94.7% | 92.5% | 95.5% | 99.2% | > 10 µM | > 10 µM | > 10 µM | > 10 µM | > 10 µM | 0 | 0 | 0 | 0 | 0
Nc1ncnc2c1ncn2[C@@H]1O[C@H](COP(=O)(O)O)[C@@H](O)[C@H]1O [adenosine-phosphate] | 114% | 98% | 86.4% | 113% | 92.8% | 89.1% | 93.5% | 93.6% | 101% | 89.6% | 90.2% | 94.5% | 101% | 85.6% | 96% | 97.9% | 102% | 94.6% | 104% | 107% | 101% | 108% | 110% | 91% | 102% | > 10 µM | > 10 µM | > 10 µM | > 10 µM | > 10 µM | 0 | 0 | 0 | 0 | 0
CCCCCCCC/C=C\CCCCCCCC(=O)N[C@@H](CO)Cc1ccc(O)cc1 [OMDM-2] | 87.1% | 94.4% | 97.1% | 91.8% | 102% | 106% | 102% | 99.5% | 96.7% | 97.3% | 100% | 93.3% | 114% | 106% | 99.6% | 96.8% | 101% | 96.7% | 100% | 99.7% | 92.4% | 92% | 97.4% | 93.7% | 109% | > 10 µM | > 10 µM | > 10 µM | > 10 µM | > 10 µM | 0 | 0 | 0 | 0 | 0
N#Cc1cc(CN2CCC(Nc3ncnc4sc(Cl)cc34)CC2)ccc1F | 98% | 98.7% | 91.2% | 98.8% | 79.7% | 104% | 106% | 103% | 97.7% | 87.7% | 97.6% | 97.3% | 107% | 78.6% | 29.1% | 96.9% | 98.6% | 96.3% | 103% | 89.1% | 102% | 98.1% | 103% | 102% | 93.4% | > 10 µM | > 10 µM | 1.4 µM | > 10 µM | > 10 µM | 0.8 | 0.2 | 7.1 | 0 | 0
COc1cc(C(=O)NCC2(N(C)C)CCCC2)cc(OC)c1OCc1ccccc1 | 95.5% | 98.1% | 103% | 97.3% | 93.5% | 94.3% | 92.1% | 96.7% | 103% | 85.8% | 97.3% | 106% | 101% | 88.8% | 89.6% | 100% | 104% | 97% | 104% | 95.9% | 104% | 99.9% | 107% | 99.4% | 95.8% | > 10 µM | > 10 µM | > 10 µM | > 10 µM | > 10 µM | 0 | 0.1 | 0.3 | 0 | 0
COc1cccc(-c2ccc([C@@H](Oc3cc(-c4ccc(C[C@H](N)C(=O)O)cc4)nc(N)n3)C(F)(F)F)cc2)c1 [LX1031] | 91.5% | 96.7% | 94.1% | 92.9% | 101% | 99.3% | 98.2% | 102% | 97.3% | 103% | 111% | 100% | 111% | 99.3% | 102% | 96.4% | 93.4% | 95.2% | 102% | 99.9% | 105% | 89.6% | 101% | 98.8% | 106% | > 10 µM | > 10 µM | > 10 µM | > 10 µM | > 10 µM | 0 | 0 | 0 | 0 | 0
O=C(O)Cn1nnc(-c2cc(N3CCC(Oc4cc(F)ccc4Br)CC3)no2)n1 [MK-8245] | 101% | 106% | 99.5% | 102% | 94.8% | 102% | 108% | 97.7% | 90.8% | 96.5% | 109% | 95.8% | 88.3% | 88.8% | 76.1% | 103% | 102% | 96.2% | 101% | 98.6% | 98.3% | 94.8% | 98.8% | 92.2% | 86.3% | > 10 µM | > 10 µM | > 10 µM | > 10 µM | > 10 µM | 0 | 0 | 2.2 | 0 | 0.1
c1ccc2c(c1)sc1ccccc12 [dibenzothiophene] | 101% | 98.7% | 99.9% | 91.1% | 99.8% | 99.4% | 103% | 92.1% | 96.1% | 101% | 102% | 96.8% | 104% | 106% | 101% | 105% | 101% | 104% | 96.7% | 104% | 100% | 96.6% | 99% | 98.5% | 98.8% | > 10 µM | > 10 µM | > 10 µM | > 10 µM | > 10 µM | 0 | 0 | 0 | 0 | 0
